Columns and labels:
[1] = test system: leaf discs cut from Col and Atxdh mutants rosette leaves; assay: Leaf discs treated with purine catabolites under dark-induced stress, remaining chlorophyll; format: in vivo, Arabidopsis thaliana; details: for protection from chlorophyll degradation: 0.1 mM, applied 2 h after 48 h dark treatment, +/- allopurinol, Col and Atxdh mutants
Procedure: (§1) FIG. 8a: xanthine (1 mM) in the presence or absence of allopurinol (1 mM, +/−Allo), was applied for 48 h to leaf discs placed in the dark and photographed 24 h after being transferred to 16 h light/8 h dark regime (left upper panel). Remaining chlorophyll, xanthine, allantoin and allantoate were determined in leaf discs sampled at the beginning of the experiment (light) or after 72 h (as described above) without xanthine (dark). FIG. 8b: allantoin or allantoate (0.1 mM) in the presence or absence of allopurinol (1 mm, +/−Allo) was applied to leaf discs for 2 h in the dark after keeping the discs in the dark for 48 h. Discs were photographed 24 h after being transferred to 16 h light/8 h dark regime (left upper panel). Leaf discs were washed twice before sampling for xanthine, allantoin and allantoate determination (right and bottom panels). Bars show mean±SEM (n=16).
Cell death was visualized in leaves sampled from dark stressed and control unstressed plants, by lactophenol-trypan blue staining followed by destaining in saturated chloral hydrate (Koch E. and Slusarenko A. 1990 Plant Cell 2, 437-445). Total chlorophyll content was measured in extracts of the fully expanded leaves as described before (Brychkova et al., 2007, ibid). The values for remaining chlorophyll content in leaf discs were determined as the amount of chlorophyll per disc divided by the amount of chlorophyll per untreated control and expressed as a percentage. The severity of leaf damage after dark stress was as follows: 1, no damage; 2, <30%; 3, 30-50%; 4, >50% of the leaf area damaged. The average leaf damage was then multiplied by the total number of damaged leaves to determine the damage level. Means±SEM for each treatment are presented.
The dark-induced loss of chlorophyll and the accelerated cell death during recovery may be due to the accumulation of excess oxypurines (FIG. 5a) or to the lack of a protective environment provided by ureides (FIGS. 5b and 5c) or both. To examine this directly, leaf discs cut from Col and Atxdh mutants rosette leaves were treated with xanthine for 48 h in the dark and were sampled after 24 h in the light. […] The observations indicate that ureides may protect chlorophyll from degradation during dark treatment and the recovery period. To elucidate the role of allantoin and allantoate directly, leaf discs were treated with 0.1 mM allantoin or allantoate. […] Importantly, the protection by the ureides was afforded in spite of the significant accumulation of xanthine in allopurinol-treated Col plants and Atxdh mutants (FIG. 8b).

[2] = test system: leaf discs of Col and Ri plants; assay: DAB-H2O2 staining of leaf discs treated with allantoin or allantoate; format: in vivo, Arabidopsis thaliana; details: 0.1 mM for 2 h after 24 h dark
Procedure: (§2) FIGS. 9a-9c show reactive oxygen species (ROS) accumulation in the presence of allantoin and allantoate in Arabidopsis wild-type (Col) and xdh1 RNA interference (Ri) lines. FIG. 9a left panel: leaf discs removed from Col plants placed for 24 h in the dark in the presence or absence of allantoin or allantoate (0.1 mM) and then washed and treated with H2O2 (0, 20, 50 mM) for an additional 6 h in the dark. Right panel: remaining chlorophyll determined 24 h after the disc were transferred to a 16 h light/8 h dark regime. Bars show mean±SEM (n=16). […] Total H2O2 relative production (right insert) was quantified in leave discs kept in the dark for 24 h and then treated with allantoin or allantoate for additional 2 h in the dark, using DAB staining Results are from two independent experiments. Error bars indicate SE (n=16). The lower case letters (a, b) indicate P<0.001 for the differences within treatment between ecotypes. […] Leaf discs were treated and analyzed as in FIG. 9b above. Total relative superoxide production was quantified in leaf discs from 2 independent experiments. […]
(§3) Nitroblue tetrazolium (NBT) O2^− staining of leaves was performed essentially according to Jabs T. et al. (1996 Science 273, 1853-1856) and Fryer M. J. et al. (2002 J Exp Bot 53, 1249-1254). […] NBT and DAB stained leaves and leaf discs were quantified using NIH Image Software (Version 1.6). […]

[3] = test system: leaf discs of Col and Ri plants; assay: NBT-O2- staining of leaf discs treated with allantoin or allantoate; format: in vivo, Arabidopsis thaliana; details: 0.1 mM for 2 h after 24 h dark; Col lines
Procedure: as §2, §3

Parsley leaf discs = assay: Allantoin application on senescence in parsley leaf discs exposed to dark stress, chlorophyll content; format: in vivo
Procedure: FIG. 14 relates to the influence of allantoin application on senescence in parsley leaf discs exposed to dark stress. Parsley leaf discs were kept for 2 days in the light and then transferred to the dark for additional 2 days with or without the addition of 0 to 10 mM allantoin. CL—control undetached leaves in the light.
Reference is also made to FIG. 14 showing that allantoin application prevents leaf spoilage in Parsley. Parsley leaf discs were kept for 2 days in the light and then for 2 days in the dark with or without the addition of 0 to 10 mM allantoin. Undetached leaves kept in the light served as control (CL). The influence of allantoin application on senescence in parsley was examined by measuring the chlorophyll content relative to the content in the control undeteched leaves.

tomato leaf discs = assay: Allantoin application to tomato leaf discs, chlorophyll degradation; format: in vivo; details: 0.1 mM and 0.5 mM allantoin; discs 2 days dark then 2 days light
Col wild type plants = assay: Xanthine determination in allopurinol-treated leaves/leaf discs during dark stress; format: in vivo, Arabidopsis thaliana; details: allopurinol applied to wild type plants
Procedure: as §1
Ureides were extracted from leaves with 80% ethanol and determined according to Vogels G. D. and Van Der Drift C. (1970 Anal Biochem 33, 143-157) using allantoic acid and allantoin as references. Six samples were analyzed and averaged for each data points. […] Hypoxanthine/xanthine were determined by high performance liquid chromatography (HPLC) using a 100×2.1 mm ID, ODS-Hypersil (5 μm) column. […] The hypoxanthine and xanthine were detected using standards retention time and UV absorption spectra ratio at 249 nm and 267 nm. […]

Row | Structure (SMILES) | protection from chlorophyll degradation [1] | reduction in DAB staining intensity (H2O2) [2] [fold] | NBT staining (superoxide) [3] | further results
1 | NC(=O)NC(NC(N)=O)C(=O)O [allantoate] | protected the treated leaf discs from chlorophyll degradation | 2 | significantly reduced staining | 
2 | NC(=O)NC1NC(=O)NC1=O (stereo not drawn) [allantoin] | protected the treated leaf discs from chlorophyll degradation | 2 | significantly reduced staining | prevention of chlorophyll loss (chlorophyll content relative to control undetached leaves) (Parsley leaf discs; 0.1-0.5 mM allantoin, 2 days light then 2 days dark): particularly effective in preventing the chlorophyll loss; protection of leaves from chlorophyll degradation and yellowing (Parsley leaf discs; 0.1-10 mM allantoin, summary of parsley and tomato leaf disc results): protects leaves from chlorophyll degradation and yellowing; chlorophyll degradation (tomato leaf discs): delayed the chlorophyll degradation
3 | Oc1ncnc2[nH]ncc12 [allopurinol, reference compound] |  |  |  | effect on xanthine-caused reduction in chlorophyll ([1]; allopurinol 1 mM in the presence of 1 mM xanthine, wild type and mutant Ri lines): exacerbated; xanthine accumulation (Col wild type plants): led to xanthine accumulation
4 | O=c1[nH]c(=O)c2[nH]cnc2[nH]1 [xanthine] |  |  |  | effect on chlorophyll ([1]; 1 mM xanthine, 48 h in the dark, sampled after 24 h in the light, Col and Ri leaf discs): caused a reduction in chlorophyll

— US10238113B2, “Method for protecting plants from stress and senescence” (BEN-GURION UNIVERSITY OF THE NEGEV RESEARCH AND DEVELOPMENT …, priority 2008, dated 2019)
